Measured values as given in patent publication US9181244B1, “Substituted pyrido[2,3-c]pyridazin-4(1H)-ones as tumor necrosis factor alpha and phosphodiesterase 4 inhibitors” (Xuanzhu Pharma Co., Ltd., priority 2014, dated 2015).

How the values were obtained:
TNF-α = test: Inhibition activity of TNF-α in whole blood test (LPS-stimulated, ELISA); format: cell-based; conditions: human whole blood diluted 1:1 with DPBS, lipopolysaccharide 100 ng/ml, overnight
Protocol: Experiment 2: Measurement of Inhibition Activity of TNF-α in Whole Blood Test
Fresh blood was collected from health human body using heparin sodium tubes. In Grade II Bio-safety Cabinet, whole blood was diluted in the ratio of 1:1 with DPBS (Dulbecco's Phosphate Buffered Saline). 100 μl of the diluted blood samples were taken and added to each of wells of a 96-well plate. 0.5 μl of compound solution was added to each well. The compound was formulated with dimethyl sulfoxide. The 96-well plate was placed in CO2 incubator and incubated for 30 min, then lipopolysaccharide in final concentration of 100 ng/ml was added, and incubated overnight. The 96-well plate was shaked for homogenization, and from each well 10 μl of solution was taken and transferred to another 96-well plate for ELISA to measure TNF-α content. The following formula was used to calculate inhibition rate, and the inhibition rate was used for calculation of IC50 value with XLfit. Inhibition rate=[signal value (MAX)−signal value (sample)]×100/[signal value (MAX)−signal value (MIN)]
Notation: MAX represents blank control stimulated with only lipopolysaccharide; MIN represents positive control with 1 μmol/l of dexamethasone.

PDE-4B1 = PDE-4B1 (Homo sapiens, UniProt Q07343); test: Lance cAMP assay, PDE-4B1 inhibition; format: biochemical; conditions: PDE4B1 0.18 nM, 20 nM cAMP, 90 min room temperature
Sequence of PDE-4B1 (Q07343 whole entry, species assumed): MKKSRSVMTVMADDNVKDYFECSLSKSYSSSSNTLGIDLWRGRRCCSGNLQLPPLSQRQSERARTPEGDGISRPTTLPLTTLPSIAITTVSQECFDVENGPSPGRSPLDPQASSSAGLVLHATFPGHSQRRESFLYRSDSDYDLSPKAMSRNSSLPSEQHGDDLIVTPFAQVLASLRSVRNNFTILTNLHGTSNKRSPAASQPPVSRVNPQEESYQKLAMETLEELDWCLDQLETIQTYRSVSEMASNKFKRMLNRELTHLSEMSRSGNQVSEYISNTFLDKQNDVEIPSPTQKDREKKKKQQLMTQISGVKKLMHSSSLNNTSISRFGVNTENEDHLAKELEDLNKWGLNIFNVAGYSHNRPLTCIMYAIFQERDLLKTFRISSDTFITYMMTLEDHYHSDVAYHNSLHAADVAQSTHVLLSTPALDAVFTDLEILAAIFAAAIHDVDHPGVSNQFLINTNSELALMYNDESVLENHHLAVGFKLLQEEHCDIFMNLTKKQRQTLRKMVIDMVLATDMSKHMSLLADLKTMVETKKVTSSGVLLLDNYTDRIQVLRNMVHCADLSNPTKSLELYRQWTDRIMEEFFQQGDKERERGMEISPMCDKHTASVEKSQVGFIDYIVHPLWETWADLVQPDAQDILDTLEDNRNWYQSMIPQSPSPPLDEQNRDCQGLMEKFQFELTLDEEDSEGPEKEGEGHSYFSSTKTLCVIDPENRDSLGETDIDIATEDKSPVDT
Protocol: (§1) Experimental Methods: Lance cAMP Assay:
(§2) Test samples were precisely weighed, added to and dissolved in DMSO, mixed sufficiently so as to reach 100 μM. The above mother solution was then diluted with DMSO to reach 1 μM, and then diluted 4 times to reach 0.0038 nM.
(§3) To 384 well plate were added 2.5 μl of substrate 20 nM cAMP and 50 nl of compound DMSO solution, then added 2.5 μl of PDE enzyme (PDE4B1 0.18 nM, PDE4D3 0.024 nM) buffer solution (1×HBSS, 5 mM Hepes pH 7.4, 3 mM MgCl2, 0.1% BSA). After incubation at room temperature for 90 min, 5 μl of Alexa Fluor® 647-anti cAMP antibody was added and incubated for 30 min, 10 μl of detection reagent was added and incubated for 60 min, then its LANCE signal was detected under 665 nm, inhibition rate was calculated by the following formulation, and IC50 values were calculated from inhibition rate using XLfit. Inhibition rate=[signal value (MAX)−signl value (sample)]×100/[signal value (MAX)−signal value (MIN)]
(§4) Notation: MAX: blank control without enzyme; MIN: blank control without compound.

PDE-4D3 = PDE-4D3 (Homo sapiens, UniProt Q08499); test: Lance cAMP assay, PDE-4D3 inhibition; format: biochemical; conditions: PDE4D3 0.024 nM, 20 nM cAMP, 90 min room temperature
Sequence of PDE-4D3 (Q08499 1-673 isoform Q08499-2): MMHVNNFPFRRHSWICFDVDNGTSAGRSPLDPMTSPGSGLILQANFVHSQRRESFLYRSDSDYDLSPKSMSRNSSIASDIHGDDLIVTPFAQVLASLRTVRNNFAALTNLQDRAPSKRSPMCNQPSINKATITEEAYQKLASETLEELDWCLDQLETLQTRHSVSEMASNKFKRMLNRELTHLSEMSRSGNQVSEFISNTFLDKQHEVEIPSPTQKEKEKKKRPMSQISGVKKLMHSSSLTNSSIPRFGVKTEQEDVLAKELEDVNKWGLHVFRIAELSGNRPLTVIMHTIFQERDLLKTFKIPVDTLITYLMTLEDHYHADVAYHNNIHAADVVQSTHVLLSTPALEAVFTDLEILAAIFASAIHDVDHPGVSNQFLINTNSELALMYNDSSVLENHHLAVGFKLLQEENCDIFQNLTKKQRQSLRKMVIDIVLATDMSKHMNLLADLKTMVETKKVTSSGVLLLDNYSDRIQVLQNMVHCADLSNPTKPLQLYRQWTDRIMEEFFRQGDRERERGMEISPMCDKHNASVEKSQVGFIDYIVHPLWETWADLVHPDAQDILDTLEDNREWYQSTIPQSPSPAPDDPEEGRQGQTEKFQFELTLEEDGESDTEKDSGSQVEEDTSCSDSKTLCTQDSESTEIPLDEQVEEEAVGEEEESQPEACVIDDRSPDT
Protocol: as §1, §2, §3, §4

PDE4D, PDE4B = conditions: some studies have shown; cited from earlier work

O=C(NC1CC1)c1nn(-c2cccc(C#Cc3cccnc3)c2)c2ncccc2c1=O [Compound 1, N-cyclopropyl-4-oxo-1-[3-(pyridin-3-ylethynyl)phenyl]-1,4-dihydropyridino[2,3-c]pyridazine-3-formamide]
IC50 (TNF-α): 51 nM | IC50 (PDE-4B1): 2.68 nM | IC50 (PDE-4D3): 2.19 nM

O=C(NC1CC1)c1nn(-c2cccc(Sc3cccnc3)c2)c2ncccc2c1=O [Compound 2, N-cyclopropyl-4-oxo-1-[3-(pyridin-3-ylthio)phenyl]-1,4-dihydropyridino[2,3-c]pyridazine-3-carboxamide]
IC50 (PDE-4B1): 161 nM | IC50 (PDE-4D3): 250 nM

O=C(NC1CC1)c1nn(-c2cccc(Oc3cccnc3)c2)c2ncccc2c1=O [Compound 3, N-cyclopropyl-4-oxo-1-(3-(pyridin-3-yloxy)phenyl)-1,4-dihydropyridino[2,3-c]pyridazine-3-carboxamide]
IC50 (PDE-4B1): 305 nM | IC50 (PDE-4D3): 358 nM

C[C@@H]1C[C@H]2[C@@H]3CCC4=CC(=O)C=C[C@]4(C)[C@@]3(F)[C@@H](O)C[C@]2(C)[C@@]1(O)C(=O)CO [Dexamethasone, reference compound]
IC50 (TNF-α): 3.3 nM

O=C(NC1CC1)c1cn(-c2cccc(C#Cc3ccc[n+]([O-])c3)c2)c2ncccc2c1=O [MK-0873, reference compound]
IC50 (TNF-α): 40.3 nM | IC50 (PDE-4B1): 5.59 nM | IC50 (PDE-4D3): 4.58 nM

O=C(NC1CC1)c1nn(-c2cccc(C#Cc3ccc[n+]([O-])c3)c2)c2ncccc2c1=O [Nitrogen oxide of Compound 1, 3-[[3-[3-(cyclopropylcarbamoyl)-4-oxo-pyridino[2,3-c]pyridazine-1(4H)-yl]phenyl]ethynyl]pyridine-1-oxide]
IC50 (TNF-α): 109 nM | IC50 (PDE-4B1): 28.1 nM | IC50 (PDE-4D3): 18.9 nM

O=C(NC1CC1)c1nn(-c2cccc(Oc3ccc[n+]([O-])c3)c2)c2ncccc2c1=O [Nitrogen oxide of Compound 3]
IC50 (PDE-4B1): 526 nM | IC50 (PDE-4D3): 643 nM

Cilomilast
activity to PDE4D compared with activity to PDE4B (PDE4D, PDE4B): 10 time

Roflumilast
activity to PDE4D compared with activity to PDE4B (PDE4D, PDE4B): equivalent activity
